Measured values: patent US20120064008A1, “COMPOSITIONS FOR THE TREATMENT OF METASTATIC CANCER AND METHODS OF USE THEREOF” (priority 2009, published 2012)
Where two headings read alike, the source gives them in different places.

Key:
[1] = test system: PC3MLN4 human prostate cancer cells; experiment: Cyquant cell viability assay, PC3MLN4; settings: for EC50: Homo sapiens, 72 h, read-out: ED50 PC3MLN4 DMSO
Method: PC3M and PC3MLN4 cells were treated with vehicle, fenbendazole in DMSO, and fenbendazole in DMSO/NMP/TWEEN®-80/CrEL in varying doses for 72 hours. Cell viability assays using Cyquant reagent (Invitrogen, C7026) were performed as described in the literature. […] cells were seeded in 96 well plates overnight, before treated with either vehicle or benzimidazole solubilized in DMSO alone or in DMSO (12.5%)/NMP ([…])/TWEEN®-80 (25%)/Cr-EL (25%) for 72 hours. Cells were harvested by removing the media, washing once with phosphate buffered saline (PBS) and freezing at −80° C. for overnight. After thawing to room temperature, Cyquant reagent were prepared and added to the wells and the fluorescence intensity were measured with a spectrometer at 485 nm. Percent control was calculated by dividing the reading from drug-treated cells with the reading from vehicle-treated cells.
ED50 values were calculated from dose-effect analysis performed with Compusyn using data from the Cyquant cell viability assays.
ED50 values were calculated from dose-effect analysis performed with Compusyn using data from the Cyquant cell viability assays. All benzimidazoles drugs were solubilized in the combination carrier.

[2] = test system: PC-3M cells; experiment: Normalized mitotic index (histone H3 phospho-Serine-28), PC-3M; format: cell-based; settings: Homo sapiens
Excerpt: The mitotic index for each agent was normalized against those obtained from vehicle-treated cells, and compared with the activity of paclitaxel, a known inducer of mitotic arrest.

[3] = test system: PC3MLN4 cells; experiment: Annexin V/7-AAD apoptosis by flow cytometry, PC3MLN4; settings: for apoptotic cells in PC3MLN4: 1 μM, combination carrier
Method: (§1) Annexin V/7-amino-actinomycin D labeling was done according to the manufacturer's instructions (BD Pharmingen, 559763) and samples were analyzed by flow cytometry. Briefly, the cells were treated for 72 hours with either vehicle or 1 μM benzimidazole drugs, solubilized in the combination carrier. Cells were trypsinized and washed with PBS before resuspending in assay binding buffer. Annexin V and 7-amino-actinomycin labeling was performed at room temperature for 15 minutes before analysis by flow cytometry (BD FACScan). Cells positively stained for annexin V in the lower right quadrant and upper right quadrant indicate early and late apoptosis, respectively.
All benzimidazole drugs were solubilized in the combination carrier. After 72 hours, the cells were analyzed by annexin V/7-AAD staining. Cells positively stained for annexin V in the lower right quadrant and upper right quadrant indicate early and late apoptosis, respectively.

[4] = test system: PC3M cells; experiment: Annexin V/7-AAD apoptosis by flow cytometry, PC3M; format: cell-based, human; settings: 1 μM, 72 hours, combination carrier
Method: All benzimidazole drugs were solubilized in the combination carrier. After 72 hours, the cells were analyzed by annexin V/7-AAD staining.
as §1

[5] = test system: AT6.1 Dunning rat prostate carcinoma; experiment: Tumor burden by blood Gaussia luciferase assay in AT6.1 model; format: in vivo, nu/nu mice; settings: 100 mg/kg; until day 22; FIG. 9
Excerpt: Similar to the survival model, treatment was not begun until day 5 when micrometastases were confirmed growing in the lung. For this approach, the AT6.1 cells were engineered to express secreted Gaussia luciferase enzyme. Using measurement of luciferase activity from the peripheral blood as an indicator of overall tumor burden, a significant reduction of tumor burden in the lungs of benzimidazole-treated animals when compared to vehicle-treated mice was observed. After 22 days, the mice were sacrificed and the lungs examined for viable tumor colonies.
Blood Gaussia luciferase assay was performed as described in the literature. Briefly, 10-20 μL peripheral blood was collected from the animals once a week via the retro-orbital vein. Secreted GAR luciferase activity was measured using a luminometer by adding 100 μL of 100 μM coelentrazine (Prolume, Nanolight, #303) to 5 μL blood and 2 μL of 20 mM EDTA. Relative luciferase reading from the blood collected represents the tumor burden in each animal. The reading was performed with blood collected at day 19 post inoculation when all mice were still alive.

[6] = Combination with paclitaxel, Cyquant cell growth inhibition, CompuSyn median-dose effect analysis; format: cell-based; settings: alone or in combination
Method: Cell growth inhibition assays were performed using Cyquant reagent as described above. Drug interactions were quantitated by median-dose effect analysis and combination index values as well as dose reduction index were derived using CompuSyn software (ComboSyn, Inc.), as described previously in the literature. CI values of <1, =1, and >1 indicate synergism, additivity and antagonism between the drugs, respectively.
All benzimidazole drugs were prepared using the combination carrier and diluted with culture medium prior to treatment.

[7] = test system: PC3 human prostate cancer cells; experiment: Cyquant cell viability assay, PC3; format: cell-based; settings: read-out: ED50 PC3
Method: (§2) The cytotoxic effects of paclitaxel, fenbendazole, and albendazole were compared in paclitaxel-resistant PC3-TR and DU145-TR prostate cancer cells with their paclitaxel-sensitive counterparts, PC3 and DU145 cells. Cells were treated for 72 hours with vehicle, paclitaxel, fenbendazole or albendazole in various doses. Cell viability was measured using Cyquant assay, and percent control was calculated by dividing the fluorescent reading from drug-treated cells with those from vehicle-treated cells, indicating percentage of cell survival.

[8] = test system: paclitaxel-resistant PC3-TR prostate cancer cells; experiment: Cyquant cell viability assay, PC3-TR; format: cell-based, human; settings: Homo sapiens, read-out: ED50 PC3-TR
Method: as §2

[9] = test system: paclitaxel-resistant DU145-TR prostate cancer cells; experiment: Cyquant cell viability assay, DU145-TR; format: cell-based, human; settings: Homo sapiens, read-out: ED50 DU145-TR
Method: as §2

[10] = test system: multidrug resistant MES-SA/Dx5 human uterine sarcoma cells; experiment: Cell viability, MES-SA/Dx5; format: cell-based; settings: read-out: ED50 MES-SA/Dx5
Excerpt: Benzimidazoles retain their anti-tumor activity in these paclitaxel-resistant cells, with higher potency when compared to the parental cells (see Table 4). Cells resistant to microtubule-stabilizing drugs such as the taxanes are more susceptible to microtubule-disrupting agents. To confirm this, human uterine sarcoma MES-SA/Dx5 cells, which are cross-resistant to various chemotherapeutic agents, including the microtubule-disrupting agents vincristine and colchicine, were used.

[11] = test system: PC3 cells; experiment: Normalized mitotic index, PC3; format: cell-based, human; settings: 1 μM
[12] = test system: PC3-TR cells; experiment: Normalized mitotic index, PC3-TR; format: cell-based, human; settings: 1 μM
[13] = test system: DU145 cells; experiment: Normalized mitotic index, DU145; format: cell-based, human; settings: 1 μM
[14] = test system: DU145-TR cells; experiment: Normalized mitotic index, DU145-TR; format: cell-based, human; settings: 1 μM
[15] = test system: PC3 cells; experiment: % apoptotic cells, PC3; format: cell-based, human; settings: 1 μM
[16] = test system: PC3-TR cells; experiment: % apoptotic cells, PC3-TR; format: cell-based, human; settings: 1 μM
[17] = test system: DU145 cells; experiment: % apoptotic cells, DU145; format: cell-based, human; settings: 1 μM
[18] = test system: DU145-TR cells; experiment: % apoptotic cells, DU145-TR; format: cell-based, human; settings: 1 μM

Row | SMILES | EC50 [1] | apoptotic cells in PC3MLN4 ([3]; 72 hours) | apoptotic cells in PC3M [4] | tumor burden compared to the control [5] | EC50 [10] | Normalized mitotic index (6 hours) PC3 [11] | Normalized mitotic index (6 hours) PC3-TR [12] | Normalized mitotic index (6 hours) DU145 [13] | Normalized mitotic index (6 hours) DU145-TR [14] | % Apoptotic cells (72 hours) PC3 [15] | % Apoptotic cells (72 hours) PC3-TR [16] | % Apoptotic cells (72 hours) DU145 [17] | % Apoptotic cells (72 hours) DU145-TR [18] | also measured
1 | COC(=O)Nc1nc2ccc(Sc3ccccc3)cc2[nH]1 [Fenbendazole, fenbendazole] | 1.93 µM | 31.4% | 22.8% | significant reduction in tumor burden | 1.13 µM | 1.26 | 1.48 | 1.47 | 1.18 | 16.1% | 34.4% | 26% | 43.3% | cytotoxicity in the combination carrier compared to DMSO alone [1]: greater cytotoxicity; reduction in ED50, DNTC compared to DMSO, PC-3MLN4 ([1]; solubilized in DNTC vs DMSO): ~2 fold; fold induction at 1 µM ([2]; at 1 μM, normalized against vehicle-treated cells, read-out: Normalized mitotic index PC-3M): > 1; cytotoxic activity via apoptosis in highly metastatic prostate cancer cells [3]: induction of apoptosis; EC50 ([6]; Fa 0.50, read-out: Dose FBZ): 6.21 µM; EC50 ([7]; 72 hours): 1.57 µM; EC50 ([8]; 72 hours, paclitaxel-resistant): 0.32 µM; EC50 ([9]; 72 hours, paclitaxel-resistant): 4.21 µM
2 | CCCSc1ccc2nc(NC(=O)OC)[nH]c2c1 [Albendazole, albendazole] | 4.68 µM | 29.7% | 22% | significant reduction in tumor burden | 0.84 µM | 1.27 | 1.56 | 1.93 | 1.13 | 13.2% | 25.8% | 27% | 55.8% | cytotoxicity in the combination carrier compared to DMSO alone ([1]; PC3MLN4 cells, 72 hours): greater cytotoxicity; cytotoxicity in highly metastatic cells relative to PC-3M ([1]; PC-3MLN4 (b184 also AT6.1) relative to PC-3M): greater cytotoxicity; fold induction at 1 µM ([2]; read-out: Normalized mitotic index PC-3M, at 1 μM, normalized against vehicle-treated cells): > 1; cytotoxic activity via apoptosis in highly metastatic prostate cancer cells ([3]; 72 hours, annexin V): induction of apoptosis; Dose ABZ ([6]; Fa 0.60): 5.249 µM; EC50 ([7]; 72 h): 4.86 µM; EC50 ([8]; 72 h): 0.8 µM; EC50 ([9]; 72 h): 1.08 µM
